Assay results from patent US10882860B2, “Treatment of osteoarthritis” (Samumed, LLC, priority 2015, dated 2021).

Experiments:
[1] = system: protease expression (MMP1, MMP3, MMP13); assay: Inhibition of protease release (qRT-PCR, TNF-α + Oncostatin M stimulated chondrocytes); type: cell-based, human; settings: 72 hours, FIGS. 19A-C
Protocol: Human MSCs were plated in 10 cm dishes in chondrogenic induction medium (Lonza; DMEM, dexamethasone, ascorbate, insulin-transferrin-selenium [ITS supplement], gentamycin-amphotericin [GA-1000], sodium pyruvate, proline and L-glutamine) and treated with TGF-β3 (20 μg/mL) to induce chondrogenic differentiation. Cells from 4 dishes were pooled and re-plated in 24-well plates in Chondrogenic Induction Medium and treated with various concentrations of the compound of Formula (I). 4 hours later, MMP production was stimulated by adding TNF-α (20 μg/mL)+Oncostatin M (10 ng/mL) and cells were incubated at 37° C., 5% CO2 for 72 hours. Cells were then pelleted and washed, and total RNA was isolated and purified using RNeasy Plus Mini Kit (Qiagen). cDNA was synthesized from 1 μg of total RNA using QuantiTect Reverse Transcription kit (Qiagen). qRT-PCR was performed with QuantiTect SYBR Green PCR Kit (Qiagen) and gene-specific primers, using CFX384 thermal cycler (Biorad). Transcripts were quantitated by comparative Ct method, and normalized to endogenous controls, β-actin and GAPDH. Fold changes were normalized to unstimulated cells. […] FIG. 19A depicts MMP1 production. FIG. 19B depicts MMP3 production. FIG. 19C depicts MMP13 production.

[2] = system: moderate-to-severe symptomatic knee OA subjects; assay: Phase 1 clinical study: biomarkers (COMP, βCTX, P1NP); type: in vivo, human
Description: The study was a first-in-human, multicenter, 24-week, placebo-controlled, single-dose, dose-escalation safety study of a Wnt pathway inhibitor in subjects suffering from moderate to severe symptomatic knee OA. The sample size was 20 subjects (randomized 4:1, 16 active: 4 placebo) per dosing cohort. Inclusion criteria included: Age, 50-75 years; Western Ontario and McMaster Universities Arthritis Index (WOMAC) Total score, 36-72 (out of 96); Kellgren-Lawrence grade, 2 or 3; and a willingness to omit pain medication for 24 hours prior to pain assessments. Exclusion criteria included: BMI>40; and treatment with IA steroids within 2 months or HA derivatives within 6 months prior to injection. A full list of the inclusion and exclusion criteria for this study can be found on clinicaltrials.gov (NCT02095548).
The dosing sequence included suspension compositions of either 0.03 mg, 0.07 mg, or 0.23 mg of the compound of Formula (I) (Form 1) per 2 mL injection in a vehicle containing 0.5% carboxymethylcellulose sodium and 0.05% polysorbate 80 in pH 7.4 phosphate buffered saline. The placebo contained only the diluent of 0.5% carboxymethylcellulose sodium and 0.05% polysorbate 80 in pH 7.4 phosphate buffered saline. The subjects were given a single, intra-articular injection in the target knee on Treatment Day 1 and participated in a follow-up period of 24 weeks.
Safety, pharmacokinetics (PK), biomarker, and efficacy data were collected at baseline and during the 24-week follow-up period. Safety data included adverse events (AEs), concomitant medications, clinical laboratory sampling, medical history, vital signs, ECGs, hip bone density (DXA) analysis, qCT of the target knee, and evaluation of bone edema via MM. For PK data, samples were collected 0, 4, and 24 hours post dose, and at Weeks 4 and 12. Biomarker data included data for procollagen type 1 N-propeptide (P1NP), beta C-terminal telopeptide of type 1 collagen (βCTX), and cartilage oligomeric matrix protein (COMP). Efficacy data included measurements of WOMAC Total score, WOMAC Function and Pain subscores, pain VAS, Physician Global Assessment of Disease Activity, MM, and radiographs. Efficacy assessments were used to determine the percentage of OMERACT-OARSI “strict” responders. Exploratory analyses of efficacy outcomes were conducted using a baseline-adjusted repeated measures analysis of covariance (ANCOVA) in the Intention-to-Treat (ITT) population. The sponsor was unblinded after Week 12 for each cohort; site investigators remained blinded. All AEs reported in this study were […]. Investigator opinion regarding whether AEs were related to the compound of Formula (I) was also collected for informational purposes.

CC(C)CC(=O)Nc1cncc(-c2ccc3[nH]nc(-c4nc5c(-c6cccc(F)c6)cncc5[nH]4)c3c2)c1 [compound of Formula (I)]
protease expression (MMP1, MMP3, MMP13) [1]: dose-dependent inhibition
change in COMP ([2]; 0.03 mg cohort): no significant changes
reduction in cartilage oligomeric matrix protein (COMP) ([2]; 0.07 mg cohort, Week 12, P=0.001): 130 ng/mL
change in COMP ([2]; 0.23 mg cohort): no significant changes
change in βCTX or P1NP ([2]; any treatment group): no significant changes
